From patent US20230303551A1, “N-CYCLYL-SULFONAMIDES USEFUL FOR INHIBITING RAF” (ALBERT EINSTEIN COLLEGE OF MEDICINE, priority 2020, published 2023)
“Also recorded” adds a separate entry of the source.

Key:
[1] = tested on: p-ERK1/2 and p-MEK1/2 in SKMEL239-C4 cells; assay: Wash-out and recovery of MAPK signaling in SKMEL239-C4 cells; type: cell-based; details: SKMEL239-C4, 500 nM for 1 hr, then washout
p-MEK in A375 cells = assay: Wash-out and recovery of MAPK signaling in A375 cells; type: cell-based; details: for relative p-MEK1/2 after washout: A375, 500 nM for 1 hr, then washout
Description: Wash-out experiments were conducted in A375 cells. After treatment with inhibitors at 500 nM for 1 h (on time), cells were incubated with fresh medium for the indicated times (off time). p-MEK levels were determined by WB and were quantified by densitometric analysis. p-MEK levels were normalized to total ERK1/2 which was used as loading control and control cells (DMSO treatment). Data were fit to an exponential model using least squares, to obtain apparent half-life (t1/2) values.
(§1) Densitometric data for p-ERK, p-MEK, ERK1/2 (MAPK cellular activity) or BRAF and GAPDH (CETSA analysis) from western blot scanned films were obtained using Image Studio software (LI-COR). Data were corrected to loading control (total ERK1/2 or GAPDH) and normalized to DMSO treated bands (100%) and blot backgrounds (0%). IC50 or Tm values were obtained from non-linear regression fits of normalized data to a four-parameter logistic curve (4PL).

SK-MEL-239-C4 cells = assay: Cell viability (Cell-Titer Glo), SK-MEL-239-C4; type: cell-based; details: SK-MEL-239-C4, 72 hr
Description: (§2) For cell viability and proliferation assays, we followed the manufacturer's protocol for Cell-Titer Glo (Promega). In brief, cells were plated in 96-well plates at a density of 5000 cells per well. The next day, cells were treated with increasing concentrations of inhibitors for 72 hours at 37° C. At the end of the incubation period, 100 μL of Cell-Titer Glo (Promega) was added to each well and further incubated for 15 min at room temperature. Cell viability was determined by measuring luminescence and was detected by a F200 PRO microplate reader (TECAN). Viability assays were performed in at least triplicate and the data normalized to vehicle-treated control wells. IC50 values were determined by nonlinear regression analysis using Prism software (Graphpad). Antiproliferative synergy was determined by co-treatment of inhibitors at indicated concentrations in 96-well plated at a density of 3000 cells per well. Inhibitors or DMSO control were injected using a D300e digital dispenser (TECAN). Extend of synergy was quantified using the BLISS matrix method.

RKO cells = assay: Cell viability (Cell-Titer Glo), RKO; type: cell-based
Description: as §2

A375 cells = assay: Cell viability (Cell-Titer Glo), A375; type: cell-based; details: Homo sapiens, A-375; A375, 72 hr
Description: as §2

BRAF^V600E [2] = biological target: T1, BRAF^V600E (Homo sapiens, UniProt P15056, V600E); assay: Cellular Thermal Shift Assay (CETSA) in A375 cells; type: cell-based; design: endogenous in cells; host or cells: A375 melanoma cells; details: A375 cells, 1, 5 and 20 μM
From the text: as §1
For CETSA analysis, cultured A375 melanoma cells were washed with Dulbecco's phosphate buffered saline (DPBS) and split into 500 μL aliquots (each containing 3,75 million cells) in the same buffer, containing DMSO control (20 μM) or 1, 5 and 20 μM of DAB or DABK. The samples were incubated for 1 hr at room temperature, rotating. After compound incubation, samples (50 μL each) were transferred in PCR tubes and incubated for 3 min in a temperature gradient produced with a C1000 thermal cycler (Bio-Rad). Cells were immediately lysed by repeating freeze-thaw cycles (3× times) in liquid nitrogen. Lysates were spun in a microcentrifuge at 15.000× g for 15 min at 4° C. Equal volumes of supernatants were run on 15-well 4-12% NuPAGE SDS-PAGE gels (Invitrogen), and analyzed by western blot. Results were quantitated by densitometric analysis and were normalized to GAPDH loading control, which is temperature insensitive under these conditions. […]

full length BRAF^V600E = full length BRAF^V600E (Homo sapiens, UniProt P15056, V600E); assay: In vitro residence time (ATP-site tracer T178 displacement, LanthaScreen); type: binding; details: kinase ATP-probe displacement
Description: Residence times of inhibitors to recombinant full-length BRAF was determined using an adaptation of the LanthaScreen Eu Kinase Binding Assay (Invitrogen). Initially, binding of inhibitors to his-tagged BRAF labelled with Eu-anti-his antibody at 80-90% saturation was established, by incubating inhibitors and BRAF in PBS buffer (max DMSO 2%) for […] The reactions were then rapidly diluted 25× times in a saturated concentration of the fluorescent ATP-site tracer T178 (Invitrogen). Dissociation of inhibitors from BRAF by T178 tracer was monitored in real-time by detecting the TR-FRET […] to […] emission ratio every 20 sec. The TR-FRET signal was normalized between 100% (no inhibitors present) and 0% (saturated inhibitor binding). Time traces were fit to a single exponential to obtain the half-life (t1/2) of dissociation of inhibitors. Residence times for each inhibitor were calculated as (t1/2)/ln2.

[3] = tested on: pERK in melanoma A375 cells expressing BRAF^V600E; assay: pERK inhibition in A375 cells (Western blot densitometry); type: cell-based; details: 1 hr treatment
Description: Western blots were performed from whole cell lysates (WCLs) prepared in lysis buffer containing 50 mM Tris-HCl pH7.5, 1% NP40, 150 mM NaCl, 1 mM EDTA and 10% glycerol in the presence of protease inhibitor cocktail (Roche). WCLs were separated on a 4-12% NuPAGE MES gel (Invitrogen), transferred onto a PVDF membrane, blocked for lhr and immunoblotted with the corresponding antibodies.
as §1

BRAF^V600E [4] = biological target: T1, BRAF^V600E; assay: Z'-LYTE kinase activity assay, BRAF^V600E; type: biochemical; details: equilibrium; ZLYTE
Description: BRAF kinase assays were performed using the Z′-LYTE™ enzymatic assay (Invitrogen, USA). […] Titrations were performed using a 1:3 dilution. Assays were performed using SelectScreen (Invitrogen).

[5] = Pharmacokinetic profile, mouse plasma levels after oral gavage; type: in vivo, CD-1 female mice; details: 5 mg/kg
Description: (§3) The pharmacokinetic profile of DAB and DABK was assessed in CD-1 female mice after a single dose at 5 mg/kg by oral gavage. Blood samples were collected at various time points (0.5, 1, 2, 4, 6, 12 and 24 hr after oral gavage) and inhibitor concentrations in plasma determined by an internal standard HPLC-chromatography tandem mass spectrometry method using calibration standards prepared in blank mouse plasma. Reported plasma concentrations are average values from 3 mice per time point. For PD study, tumor xenografts were established by subcutaneous implantation of A375 melanoma cells plus Matrigel (BD Biosciences) into the right flank of female SCID mice. Mice were randomized to treatment and control groups when the average tumor volume reached 100-150 mm^3 and were treated with a single oral dose (PO) of either vehicle or inhibitors at 5 mg/kg. Tumors were harvested at 2, 12 and 24 hr post PO (3 mice per group). Harvested tumors were homogenized in lysis buffer containing 50 mM Tris-HCl pH7.5, 1% NP40, 150 mM NaCl, 1 mM EDTA, 10% glycerol and phosphatase/protease inhibitors. pERK levels in clarified lysates were determined by Western Blotting and were expressed as % inhibition by normalization to average levels from vehicle tumors (0% inhibition). Vehicle formulation for DAB and DABK treatment in both PK and PD was 30% PEG-400, 0.5% Tween-20, 5% Glycerol in PBS.

BRAF^V600E [6] = biological target: T1, BRAF^V600E; assay: LanthaScreen Eu kinase binding assay
Description: Binding affinity of inhibitors to recombinant full-length BRAF was determined using the LanthaScreen Eu Kinase Binding Assay (Invitrogen) in PBS buffer. Initially, saturated binding of fluorescent Alexa Fluor 647 ATP-site tracer T178 (Invitrogen) on BRAF, which was his-tagged at the N-terminus, was established. T178 tracer was then competed-off by increasing amounts of inhibitors in titration experiments in 96-well plates. Competition was detected by loss of TR-FRET signal. The signal was produced by a FRET pair between an Eu-labeled anti his-tag antibody, which recognizes his-tagged BRAF used in the assay, and the T178 tracer. The europium donor was excited using a 340 nm excitation filter and energy transfer to the T178 tracer was measured using a filter centered at 665 nm with a time delay of 200 μs. The emission ratio was calculated as the 665 nm signal divided by the 615 nm signal. The apparent % inhibition was calculated by least squares fits of the emission ratio. […] The maximum DMSO concentration in the assay was 2%.

A549 cells = assay: Cell viability and antiproliferative synergy with cobimetinib (Bliss matrix), A549; type: cell-based; details: A549, combination with cobimetinib (COB)
Description: as §2

[7] = tested on: pERK in A375 xenograft tumors; assay: Pharmacodynamic study, pERK in A375 xenograft tumors; type: in vivo, female SCID mice; details: 5 mg/kg single oral dose, A375 mice xenograft
Description: as §3

panel of 97 kinases = assay: KinomeScan; type: binding; details: competition screen

T1 sequence (P15056 whole entry V600E): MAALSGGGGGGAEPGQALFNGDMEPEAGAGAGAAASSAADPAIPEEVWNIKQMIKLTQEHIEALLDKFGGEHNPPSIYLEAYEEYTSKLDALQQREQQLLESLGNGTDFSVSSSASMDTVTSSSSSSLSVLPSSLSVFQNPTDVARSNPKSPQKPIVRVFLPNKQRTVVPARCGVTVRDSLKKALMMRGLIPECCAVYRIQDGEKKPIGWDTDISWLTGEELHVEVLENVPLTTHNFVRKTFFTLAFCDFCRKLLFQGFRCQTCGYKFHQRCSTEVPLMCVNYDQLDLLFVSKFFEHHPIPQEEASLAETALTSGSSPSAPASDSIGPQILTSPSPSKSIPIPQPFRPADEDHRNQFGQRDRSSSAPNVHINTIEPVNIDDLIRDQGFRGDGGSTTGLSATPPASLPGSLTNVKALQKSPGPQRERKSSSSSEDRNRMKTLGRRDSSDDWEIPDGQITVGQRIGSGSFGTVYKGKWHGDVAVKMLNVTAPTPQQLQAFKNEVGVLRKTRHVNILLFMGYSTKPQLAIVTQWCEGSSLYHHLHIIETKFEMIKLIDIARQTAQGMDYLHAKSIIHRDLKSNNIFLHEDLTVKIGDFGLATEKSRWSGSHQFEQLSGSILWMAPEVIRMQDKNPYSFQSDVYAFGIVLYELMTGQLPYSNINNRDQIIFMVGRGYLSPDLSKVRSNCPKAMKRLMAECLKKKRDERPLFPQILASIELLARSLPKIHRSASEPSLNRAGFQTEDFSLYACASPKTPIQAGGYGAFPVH
full length BRAF^V600E, sequence (P15056 whole entry V600E): as above

Row | IC50 (SK-MEL-239-C4 cells; 72 h) | Compound | p-MEK1/2 inhibition after washout [1] | relative p-ERK1/2 after washout [1] | relative p-MEK1/2 after washout (p-MEK in A375 cells) | IC50 (SK-MEL-239-C4 cells) | IC50 (RKO cells; 72 hr) | IC50 (RKO cells; Homo sapiens, 72 h) | IC50 (A375 cells) | melting temperature (Tm) (BRAF^V600E [2]) | apparent in vitro residence time (Koff) (full length BRAF^V600E) | IC50 of pERK inhibition [3] | other results
1 |  | C[C@@H](CNc1nccc(-c2sc(C(C)(C)C)nc2-c2cccc(NS(=O)(=O)c3c(F)cccc3F)c2F)n1)NC(=O)CCO [Compound K6] | Almost complete p-MEK1/2 inhibition over time | prolonged ERK signaling inhibition over time | prolonged signaling inhibition over time |  |  |  |  |  |  |  | 
2 |  | COC(=O)N[C@@H](CN)CNc1nccc(-c2sc(C(C)(C)C)nc2-c2cccc(NS(=O)(=O)c3c(F)cccc3F)c2F)n1 [Compound K8] | Almost complete p-MEK1/2 inhibition over time | prolonged ERK signaling inhibition over time | prolonged signaling inhibition over time |  |  |  |  |  |  |  | 
3 | 35 nM | COC(=O)N[C@@H](C)CNc1nccc(-c2sc(C(C)(C)C)nc2-c2cccc(NS(=O)(=O)c3c(F)cccc3F)c2F)n1 [DABK] | Almost complete p-MEK1/2 inhibition over time | prolonged ERK signaling inhibition over time | prolonged signaling inhibition over time | 35.3 nM | 20.6 nM | 20 nM | 3.4 nM | very similar | sustained binding in the time frame of the experiment | comparable IC50 to Enco | IC50, kinase inhibitory activity (BRAF^V600E [4]): low nM range; clearance from the blood [5]: faster clearance from the blood than DAB; Kd, binding affinity (BRAF^V600E [6]): low nM range; extent of antiproliferative synergy (A549 cells): strong synergy; endurance of pERK inhibition in tumors [7]: > 12 hr; half-life of recovery of pMEK inhibition (p-MEK in A375 cells; A375, 500 nM for 1 h, then wash-out): 2.5 hours; retention of p-MEK inhibition relative to DAB (p-MEK in A375 cells; A375 wash-out, times longer than DAB): approximately 4.4 times; targeting selectivity across the kinome (panel of 97 kinases): improved compared to DAB's; also recorded: improved targeting selectivity across the kinome; also recorded: higher specificity than DAB
4 | > 400 nM | COC(=O)N[C@@H](C)CNc1nccc(-c2cn(C(C)C)nc2-c2cc(Cl)cc(NS(C)(=O)=O)c2F)n1 [Enco, encorafenib] |  |  |  |  |  | > 400 nM |  |  | sustained binding in the time frame of the experiment |  | 
5 | > 400 nM | CCCS(=O)(=O)Nc1ccc(F)c(C(=O)c2c[nH]c3ncc(-c4ccc(Cl)cc4)cc23)c1F [VEM, vemurafenib] |  |  |  |  |  | > 400 nM |  |  |  |  | 

Row | Compound | IC50 (SK-MEL-239-C4 cells; 72 h) | p-MEK1/2 inhibition after washout [1] | relative p-ERK1/2 after washout [1] | relative p-MEK1/2 after washout (p-MEK in A375 cells) | IC50 (SK-MEL-239-C4 cells) | IC50 (RKO cells; 72 hr) | IC50 (RKO cells; Homo sapiens, 72 h) | IC50 (A375 cells) | melting temperature (Tm) (BRAF^V600E [2]) | apparent in vitro residence time (Koff) (full length BRAF^V600E) | IC50 of pERK inhibition [3] | other results
6 | CC(C)(C)c1nc(-c2cccc(NS(=O)(=O)c3c(F)cccc3F)c2F)c(-c2ccnc(N)n2)s1 [DAB, dabrafenib] | > 400 nM |  |  |  | 456 nM | 425 nM | > 400 nM | 5.3 nM | very similar | significantly shorter residence times | lower IC50 | 
